Assay results: US20100190848A1, “Cysteine-protease inhibitors” (UNIVERSITAT JAUME I, priority 2007, published 2010)
pIC50: −log10 of the molar value.

Tests used:
cruzain = cruzain (Trypanosoma cruzi, UniProt P25779); assay: biochemical; type: biochemical; conditions: for % inhibition (DMSO) Cruzain: concentration not given; for activity against cruzain (in words): summary statement
rhodesain = rhodesain (Trypanosoma brucei rhodesiense, UniProt Q95PM0); assay: Enzymatic inhibition of recombinant rhodesain, fluorogenic Z-Phe-Arg-AMC substrate; type: biochemical, T. Brucei; conditions: for % inhibition (DMSO) Rhodesain: concentration not given; for activity against rhodesain (in words): summary statement
Chain of rhodesain (Q95PM0 entry or part of it): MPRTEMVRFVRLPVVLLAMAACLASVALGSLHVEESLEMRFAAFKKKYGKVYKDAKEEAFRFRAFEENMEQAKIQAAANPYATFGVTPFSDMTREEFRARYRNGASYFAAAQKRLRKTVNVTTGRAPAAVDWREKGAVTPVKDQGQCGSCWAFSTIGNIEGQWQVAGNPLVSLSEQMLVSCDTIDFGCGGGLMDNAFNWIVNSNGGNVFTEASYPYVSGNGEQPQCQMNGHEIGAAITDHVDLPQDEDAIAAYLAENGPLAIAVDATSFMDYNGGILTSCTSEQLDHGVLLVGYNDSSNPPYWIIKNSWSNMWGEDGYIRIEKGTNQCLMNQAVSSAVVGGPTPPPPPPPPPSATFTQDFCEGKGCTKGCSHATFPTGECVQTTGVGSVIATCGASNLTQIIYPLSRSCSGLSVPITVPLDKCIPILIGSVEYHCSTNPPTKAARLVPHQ
Description: (§1) Inhibition of cysteine-proteases cruzain, rhodesain, cathepsin B (Tb CatB) and falcipain (FP2) was assessed by quantification of the resulting fluorescence emission of the proteolytic breakdown of synthetic compound Z-Phe-Arg-AMC (Bachem). Inhibitors Ia or Ib were used at concentrations ranging form 10 nM to 10.000 nM (from 500 nM to 10000 nM for Tb CatB); thus, serial dilutions in DMSO were prepared with the minimal concentration of inhibitor Ia or Ib used for calculations and at least 10 times higher than that of the enzyme. These experiments were performed by distributing inhibitor Ia or Ib in 96 wells, fluorescence was recorded on a Flex Station fluorimeter (Molecular Devices), 355 nm excitation and 460 nm emission at 25° C., distributing 100 μl of substrate using a multichannel pipette at a similar volume of the inhibitor enzyme preincubated at 25° C. for 5 minutes. In each series of experiments, the enzyme with DMSO and the enzyme in the presence of the known irreversible inhibitor K11777 (N methyl piperazine-Phe-HPhe-(CH═CHSO2 Ph)), Arris Pharmaceuticals Inc., South San Francisco, Calif.) were used as controls.
(§2) Enzyme inhibition data were similarly determined: recombinant cruzain at 4 nM with 5 μM of Z-Phe-Arg-AMC (Km=1 μM) in buffer A (100 mM of sodium acetate, pH 5.5 with 5 mM of DTT and 0.001% Triton-X 100 (Sigma)); recombinant rhodesain at 4 nM of enzyme and 5 μM Z-Phe-Arg-AMC (Km=1 μM) in buffer A; recombinant Tb CatB at 40 nM of enzyme and 5 μM of Z-Phe-Arg-AMC (Km=60 μM) in buffer A and recombinant FP2 at 4 nM with 5 μM of Z-Phe-Arg-AMC (Km=1 μM) in buffer A. IC50 values were determined by direct reading of the semi-log plot of reaction speed versus inhibitor concentration.

[1] = system: Trypanosoma brucei brucei (Tbb); assay: Inhibition test on Trypanosoma brucei brucei by ATP-bioluminescence; type: cell-based; conditions: concentration not given
Description: Inhibition tests on Trypanosoma brucei brucei were performed by ATP-bioluminescence (Z. B. Mackey et al, Chem. Biol. Drug Des. 2006, 67, pp. 355-363).

falcipain (FP2) = falcipain (FP2) (Plasmodium falciparum, UniProt Q8I6U4); assay: Enzymatic inhibition of recombinant falcipain (FP2), fluorogenic Z-Phe-Arg-AMC substrate; type: biochemical
Chain of falcipain (FP2) (Q8I6U4 244-484): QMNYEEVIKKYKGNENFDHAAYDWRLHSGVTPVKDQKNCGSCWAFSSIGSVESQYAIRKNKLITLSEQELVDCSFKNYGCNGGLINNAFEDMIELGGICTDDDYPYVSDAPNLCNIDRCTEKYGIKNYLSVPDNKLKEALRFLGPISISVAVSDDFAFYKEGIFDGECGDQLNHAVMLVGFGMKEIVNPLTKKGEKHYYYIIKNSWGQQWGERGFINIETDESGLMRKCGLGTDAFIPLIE
Description: as §1, with “controls. […]” for “controls.”

cathepsin B (Tb CatB) = cathepsin B (Tb CatB) (Trypanosoma brucei, UniProt Q6R7Z5); assay: Enzymatic inhibition of recombinant Tb CatB, fluorogenic Z-Phe-Arg-AMC substrate; type: biochemical; conditions: for % inhibition (DMSO) TbCat B: concentration not given; for activity against cathepsin B (in words): summary statement, said to indicate selectivity
Chain of cathepsin B (Tb CatB) (Q6R7Z5 entry or part of it): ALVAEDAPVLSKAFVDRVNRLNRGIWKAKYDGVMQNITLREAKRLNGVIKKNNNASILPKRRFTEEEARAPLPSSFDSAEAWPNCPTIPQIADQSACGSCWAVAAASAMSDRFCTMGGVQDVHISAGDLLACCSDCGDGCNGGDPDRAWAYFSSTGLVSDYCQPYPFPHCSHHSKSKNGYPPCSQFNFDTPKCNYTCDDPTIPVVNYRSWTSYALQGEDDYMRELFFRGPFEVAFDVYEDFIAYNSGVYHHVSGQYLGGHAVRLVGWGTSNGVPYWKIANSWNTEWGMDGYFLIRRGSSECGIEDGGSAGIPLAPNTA
Description: as §1, §2

Chain of cruzain (P25779 123-467): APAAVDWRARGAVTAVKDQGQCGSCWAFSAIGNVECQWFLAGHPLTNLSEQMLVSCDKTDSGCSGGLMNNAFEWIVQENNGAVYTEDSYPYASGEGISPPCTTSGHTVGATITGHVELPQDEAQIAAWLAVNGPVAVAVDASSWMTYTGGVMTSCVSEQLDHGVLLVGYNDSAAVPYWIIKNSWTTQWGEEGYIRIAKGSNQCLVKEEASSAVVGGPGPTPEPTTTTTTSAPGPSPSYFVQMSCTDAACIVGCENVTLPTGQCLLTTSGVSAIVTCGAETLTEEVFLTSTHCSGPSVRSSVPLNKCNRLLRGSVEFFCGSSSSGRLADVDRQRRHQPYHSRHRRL

Row | SMILES | pIC50 (cruzain) | % inhibition (DMSO) Cruzain (cruzain) | activity against cruzain (in words) (cruzain) | pIC50 (rhodesain) | % inhibition (DMSO) Rhodesain (rhodesain) | activity against rhodesain (in words) (rhodesain) | % inhibition (DMSO) Tbb [1] | pIC50 (falcipain (FP2)) | pIC50 (cathepsin B (Tb CatB)) | % inhibition (DMSO) TbCat B (cathepsin B (Tb CatB)) | activity against cathepsin B (in words) (cathepsin B (Tb CatB))
1 | CCOC(=O)[C@H]1O[C@@H]1C(=O)[C@H](CCc1ccccc1)NC(=O)[C@H](Cc1ccccc1)NC(=O)OCc1ccccc1 [Compound Ia.1, Ethyl (2S,3S)-3-[(2S)-2-((2S)-2-benzyloxycarbonylamino-3-phenylpropionylamino)-4-phenylbutyryl]oxirane-2-carboxylate] | 7.70 | 93% | very active | 8.46 | 98% | very active | 42% | 7.15 | < 6.00 | 51% | not against cathepsin B
2 | CCOC(=O)[C@@H]1O[C@H]1C(=O)[C@H](CCc1ccccc1)NC(=O)[C@H](Cc1ccccc1)NC(=O)OCc1ccccc1 [Compound Ib.1, Ethyl (2R,3R)-3-[(2S)-2-((2S)-2-benzyloxycarbonylamino-3-phenylpropionylamino)-4-phenylbutyryl]oxirane-2-carboxylate] | 7.30 | 55% | very active | 7.52 | 80% | very active | −2% | 7.36 | 6.40 | 47% | not against cathepsin B
